Laboratory results published in US20240108002A1, “1-AMINO-1-CYCLOPROPANECARBOXYLIC ACID AND PROHYDROJASMON MIXTURES AND USES THEREOF” (Valent BioSciences LLC, priority 2022, published 2024).

Tested on: Imperial Gala apples
Assay: Apple coloration in Imperial Gala variety, percent red pixel area after foliar spray
Assay type: in vivo
Conditions: for Average % Red Pixel Area: foliar spray, 34 hours post spray; for Fold Change From control: vs 0.05% Regulaid control
Experimental: 10 sets of unripened apples, Imperial Gala variety, harvested three weeks before the normal harvest date, were each foliar sprayed with either 1) 0.05% Regulaid® as a control, 2) 50 ppm prohydrojasmon, 3) 300 ppm prohydrojasmon, 4) 50 ppm ACC, 5) 300 ppm ACC or 6) a mixture of 50 ppm prohydrojasmon and 50 ppm ACC or 7) a mixture of 300 ppm prohydrojasmon and 300 ppm ACC. 34 hours post spray application percent red pixel area (shaded) was measured. Percent red pixel area is an indication of the coloration of the apple fruit.
To determine if the mixture provided unexpected results, the observed combined efficacy (“OCE”) was divided by the expected combined efficacy (“ECE”) wherein the ECE is calculated by the Abbott method: […]
wherein ECE is the expected combined efficacy and in which A and B are the fold change from control given by the single active ingredients. If the ratio between the OCE of the mixture and the ECE of the mixture is greater than 1, then greater than expected interactions are present in the mixture. (Gisi, Synergistic Interaction of Fungicides in Mixtures, The American Phytopathological Society, 86:11, 1273-1279,1996).

Compound | Average % Red Pixel Area (single active at 50 ppm) [%] | Fold Change From control (single active at 50 ppm) | Average % Red Pixel Area (single active at 300 ppm) [%] | Fold Change From control (single active at 300 ppm)
NC1(C(=O)O)CC1 [ACC, 1-amino-1-cyclopropanecarboxylic acid] | 7.02 | 0.03 | 4.66 | −0.31
CCCCCC1C(=O)CCC1CC(=O)OCCC (centres unmarked) [prohydrojasmon] | 15.84 | 1.33 | 21.03 | 2.09
